Where “and” joins values, the source holds several entries; their conditions need not be identical. Equal entries are not always repeated. Calls of active or inactive are those of the source.
How the values were obtained:
Cytochrome P450 1A2 = target: T1, Cytochrome P450 1A2 (Homo sapiens, UniProt P05177);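 also: PubChem cytochrome P450 panel assay, CYP1A2 panel member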
T1 sequence (P05177 whole entry): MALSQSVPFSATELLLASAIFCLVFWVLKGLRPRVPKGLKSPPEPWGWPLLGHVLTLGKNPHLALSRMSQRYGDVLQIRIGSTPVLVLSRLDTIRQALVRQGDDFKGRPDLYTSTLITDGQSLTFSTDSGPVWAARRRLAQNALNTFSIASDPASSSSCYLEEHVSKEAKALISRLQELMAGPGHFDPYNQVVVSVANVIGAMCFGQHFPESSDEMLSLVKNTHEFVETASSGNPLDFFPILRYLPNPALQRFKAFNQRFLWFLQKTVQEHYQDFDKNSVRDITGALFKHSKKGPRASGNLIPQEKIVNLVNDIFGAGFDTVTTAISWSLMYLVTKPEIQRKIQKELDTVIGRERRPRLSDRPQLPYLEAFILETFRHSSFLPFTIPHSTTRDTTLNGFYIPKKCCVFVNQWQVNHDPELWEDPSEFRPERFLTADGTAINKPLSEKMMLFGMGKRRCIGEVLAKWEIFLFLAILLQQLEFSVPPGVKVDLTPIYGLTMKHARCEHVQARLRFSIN

Cytochrome P450 2D6 = Cytochrome P450 2D6 (Homo sapiens, UniProt P10635);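 also: CYP2D6 member of a cytochrome P450 panel assay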
[1] = target: T2, Replicative DNA helicase DnaB (Mycobacterium tuberculosis, UniProt P9WMR3); assay: DnaB intein splicing inhibitors, dose response, biochemical, cell-free fluorescence (AID 449749); format: functional
T2 sequence (P9WMR3 whole entry): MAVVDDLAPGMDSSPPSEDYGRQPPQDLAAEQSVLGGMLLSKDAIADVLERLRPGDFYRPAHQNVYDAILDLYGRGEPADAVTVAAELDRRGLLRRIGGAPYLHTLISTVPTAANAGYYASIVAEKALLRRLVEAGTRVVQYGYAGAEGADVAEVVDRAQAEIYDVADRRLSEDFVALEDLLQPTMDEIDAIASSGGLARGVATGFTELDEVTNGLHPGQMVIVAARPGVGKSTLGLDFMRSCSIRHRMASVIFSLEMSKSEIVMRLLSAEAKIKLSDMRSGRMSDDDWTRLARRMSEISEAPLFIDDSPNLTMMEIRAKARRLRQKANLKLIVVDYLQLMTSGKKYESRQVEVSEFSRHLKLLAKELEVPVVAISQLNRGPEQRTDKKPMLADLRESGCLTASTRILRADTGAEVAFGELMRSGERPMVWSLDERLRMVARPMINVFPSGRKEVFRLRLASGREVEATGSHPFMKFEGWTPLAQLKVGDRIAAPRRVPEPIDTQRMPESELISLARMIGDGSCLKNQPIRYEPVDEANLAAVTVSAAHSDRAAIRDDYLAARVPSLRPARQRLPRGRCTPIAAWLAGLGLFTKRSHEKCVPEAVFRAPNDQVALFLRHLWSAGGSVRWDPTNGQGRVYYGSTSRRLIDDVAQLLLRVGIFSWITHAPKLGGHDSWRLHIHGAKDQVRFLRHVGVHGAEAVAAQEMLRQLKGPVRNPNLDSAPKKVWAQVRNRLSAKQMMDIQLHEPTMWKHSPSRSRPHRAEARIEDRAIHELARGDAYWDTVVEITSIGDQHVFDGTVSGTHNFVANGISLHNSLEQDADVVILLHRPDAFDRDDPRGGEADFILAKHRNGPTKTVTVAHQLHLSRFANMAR

Protein RecA = target: T3, Protein RecA (Mycobacterium tuberculosis, UniProt P9WHJ3); assay: Fluorescence Cell-Free Homogeneous Dose Retest to Identify Inhibitors of RecA-Intein Splicing Activity. [Related pubchem assays (depositor defined):AID2097, AID2223, AID489010, AID492950]; format: functional
T3 sequence (P9WHJ3 whole entry): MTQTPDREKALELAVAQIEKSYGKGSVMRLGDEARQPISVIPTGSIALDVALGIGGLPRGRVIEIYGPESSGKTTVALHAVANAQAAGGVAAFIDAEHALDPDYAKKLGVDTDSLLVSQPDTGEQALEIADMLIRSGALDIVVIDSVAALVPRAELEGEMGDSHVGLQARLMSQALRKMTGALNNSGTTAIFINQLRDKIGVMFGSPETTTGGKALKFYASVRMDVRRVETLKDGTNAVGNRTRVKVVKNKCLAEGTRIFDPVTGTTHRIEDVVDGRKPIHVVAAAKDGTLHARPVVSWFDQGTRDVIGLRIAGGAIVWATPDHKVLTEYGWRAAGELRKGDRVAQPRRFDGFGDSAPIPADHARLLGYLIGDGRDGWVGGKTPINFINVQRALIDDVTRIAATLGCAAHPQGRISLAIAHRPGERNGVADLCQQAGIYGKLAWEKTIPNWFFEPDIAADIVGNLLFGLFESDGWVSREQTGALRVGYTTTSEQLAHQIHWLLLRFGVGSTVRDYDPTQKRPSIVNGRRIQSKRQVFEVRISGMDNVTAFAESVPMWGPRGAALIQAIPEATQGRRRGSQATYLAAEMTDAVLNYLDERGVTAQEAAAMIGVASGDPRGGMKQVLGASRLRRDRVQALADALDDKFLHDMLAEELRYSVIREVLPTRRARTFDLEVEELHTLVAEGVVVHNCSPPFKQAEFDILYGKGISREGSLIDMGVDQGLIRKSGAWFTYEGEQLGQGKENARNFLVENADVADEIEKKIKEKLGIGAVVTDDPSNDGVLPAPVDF

Genome polyprotein = Genome polyprotein (dengue virus type 2, UniProt P29990); assay: Dengue-2 NS5 methyltransferase inhibitors, primary screen, biochemical, confirmation dose response (AID 588689); format: functional
[2] = target: T4, Polyadenylate-binding protein 1 (Homo sapiens, UniProt P11940); assay: PABP1 MLLE–PAM2 interaction inhibitors, dose response, miRNA deadenylation inhibitor project, biochemical, fluorescence polarization, Cy5-PAM2 peptide, secondary (AID 602260); format: functional; settings: read-out: IC50_Mean
[3] = target: T4, Polyadenylate-binding protein 1; assay: PABP1 MLLE–PAM2 binding inhibitor potency, dose response, biochemical, fluorescence polarization, FITC-PAM2 peptide (AID 602259); format: functional; settings: read-out: IC50_Mean
[4] = inhibitors of firefly luciferase expression or activity, dose response, H4 neuroglioma cells, luminescence (AID 1990); format: functional, cell-based
[5] = Luminescence Cell-Based Dose Response HTS to Identify Inhibitors of 5'UTR Stem-Loop Driven Prion Protein mRNA Translation in H4 Neuroglioblastoma Cells. [Related pubchem assays: 1827 (Project Summary), 1813 (Primary HTS)]; format: functional
[6] = inhibitors of SNCA 5'UTR-driven reporter translation, confirmation, H4 neuroglioma cells, luminescence (AID 1988); format: functional, cell-based
H4 = assay: Luminescence Cell-Based Dose Response HTS to Identify Activators of 5'UTR Stem-Loop Driven Prion Protein mRNA Translation in H4 Neuroglioblastoma Cells. [Related pubchem assays: 1829 (Project Summary), 1814 (Primary HTS)]; format: functional; settings: Homo sapiens
[7] = Luminescence Cell-Based Dose Response HTS to Identify Activators of Luciferase Translation or Activity in H4 […] Cells. [Related pubchem assays: 1829 (Project Summary), 1814 (Primary HTS)]; format: functional
Cytochrome P450 2C9 = Cytochrome P450 2C9 (Homo sapiens, UniProt P11712)
H9c2 = assay: cells; format: functional, cell-based; settings: Rattus norvegicus, H9c2, Myocardium;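 also: confirmatory concentration-response retest of ultra-high-throughput screening hits for modulation of myocardial damage; cell death induced by hydrogen peroxide oxidative stress; compound pretreatment for 60 min then peroxide exposure for 2 h; potency is for protecting the cells against peroxide damage rather than for killing them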
Cytochrome P450 2C19 = Cytochrome P450 2C19 (Homo sapiens, UniProt P33261); assay: Cytochrome panel assay with activity outcomes. Panel member name: p450-cyp2c19 Compounds with AC50 equal or less than 10 uM are considered active; format: functional; settings: read-out: AC50
[8] = target: T5, Heat shock factor protein 1 (Mus musculus, UniProt P38532); assay: inhibition of MG132-induced HSE-luciferase signal, confirmation, cell-based, NIH3T3, luminescence, dose retest (AID 2382); format: functional;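 also: NIH3T3 fibroblasts with HSF1-driven luciferase reporter stressed by proteasome inhibitor MG132; luminescence from HSF1-driven luciferase expression after 8 hours of MG132 stress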
T5 sequence (P38532 whole entry): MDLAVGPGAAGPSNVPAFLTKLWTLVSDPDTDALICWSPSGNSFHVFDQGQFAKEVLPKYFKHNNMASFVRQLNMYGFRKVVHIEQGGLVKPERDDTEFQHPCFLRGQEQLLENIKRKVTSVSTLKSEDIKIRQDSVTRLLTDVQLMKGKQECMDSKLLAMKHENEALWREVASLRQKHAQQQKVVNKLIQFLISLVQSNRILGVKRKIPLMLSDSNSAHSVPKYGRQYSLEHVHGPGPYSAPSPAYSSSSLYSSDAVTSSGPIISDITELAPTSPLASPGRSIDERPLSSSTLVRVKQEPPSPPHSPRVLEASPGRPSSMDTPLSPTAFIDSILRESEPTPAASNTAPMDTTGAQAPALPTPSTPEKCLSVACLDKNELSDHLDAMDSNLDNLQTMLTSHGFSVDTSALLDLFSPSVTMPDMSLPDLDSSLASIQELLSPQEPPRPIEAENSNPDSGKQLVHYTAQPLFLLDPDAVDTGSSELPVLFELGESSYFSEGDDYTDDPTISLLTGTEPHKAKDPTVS

INS1 = assay: beta cell apoptosis inhibitors, cytokine rescue, dose response, luminescence, retest (AID 449756); format: functional, cell-based; settings: Rattus norvegicus;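 also: cell death triggered by IL-1 beta plus TNF-alpha plus IFN-gamma mixture; protective hits raise ATP signal compared with cytokine alone wells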
Cytochrome P450 3A4 = Cytochrome P450 3A4 (Homo sapiens, UniProt P08684);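 also: CYP3A4 tested as one member of a cytochrome P450 panel screen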

SMILES | AC50 (Cytochrome P450 2D6) | IC50 [2] | IC50 [3] | further results
COC(=O)C1=C(C)OC(N)=C(C#N)C1C1CCCCC1 (configuration not stated) | 31.6 µM (inconclusive) |  |  | AC50 (Cytochrome P450 1A2): 15.8 µM (inconclusive)
CC1=NN(c2ccccc2)C(=O)/C1=C/c1ccc(Cl)cc1 |  |  |  | AC50 [1]: 2.15 µM (active); EC50 (Protein RecA): 1.35 µM (active); IC50 (Genome polyprotein): 38.6 µM (active)
S=C(Nc1ccc(Br)cc1Cl)Nn1cnnc1 |  | > 66 µM (inactive) | > 66 µM (inactive) | 
Cc1ccc(NC(=O)C2(NC(=O)c3cccc(N4C(=O)CSC4c4ccccc4)c3)CCCCC2)cc1 (configuration not stated) | 1.12 µM (inconclusive) |  |  | EC50 [4]: > 120 µM (not active); EC50 [5]: > 120 µM (not active); EC50 [6]: > 120 µM (not active)
COC(=O)CCC(=O)OC1(C)C(=O)C2=CN(Cc3ccccc3)C(c3ccc(OC)cc3)=CC2=C(Br)C1=O (configuration not stated) |  |  |  | IC50 (Genome polyprotein): 39.1 µM (active)
COc1ccc(-c2cc(C(=O)N3CCN(c4ccccn4)CC3)c3ccccc3n2)cc1 |  |  |  | EC50 (H4): 7.36 µM (active); EC50 [7]: > 120 µM (not active)
O=C1/C(=C/c2cccnc2)SC(=S)N1c1ccc(F)cc1 |  | > 66 µM (inactive) | > 66 µM (inactive) | 
O=C(/C=C\c1ccc(O)c(O)c1)OCCc1ccccc1 | 39.8 µM (inconclusive) |  |  | AC50 (Cytochrome P450 2C9): 39.8 µM (inconclusive)
O=C1c2ccccc2NC(c2ccc(Cl)cc2Cl)N1O (configuration not stated) | 14.1 µM (inconclusive) |  |  | IC50 (H9c2): > 79 µM (inactive); AC50 (Cytochrome P450 2C9): 25.1 µM (inconclusive)
COc1cc(C(=S)N2CCOCC2)cc(OC)c1OS(=O)(=O)c1ccc(C)cc1 |  | > 66 µM (inactive) | > 66 µM (inactive) | 
COc1cc(C2c3sc(O)nc3SC3C(=O)N(c4ccc(Br)cc4)C(=O)C32)ccc1O (configuration not stated) |  | > 66 µM (inactive) | > 66 µM (inactive) | 
CCCCC#Cc1nc(NC)c2ncn([C@@H]3O[C@@H](CO)[C@H](O)[C@H]3O)c2n1 | 31.6 µM (inconclusive) |  |  | AC50 (Cytochrome P450 1A2): 31.6 µM (inconclusive); AC50 (Cytochrome P450 2C19): 3.16 µM (inconclusive)
Cn1nc([N+](=O)[O-])c(C(C#N)c2nc3ccccc3n2C)c(Cl)c1=O (configuration not stated) |  | > 66 µM (inactive) | 30.8 µM (inactive) | IC50 (Genome polyprotein): 16.7 µM (active)
COc1ccc2c([N+](=O)[O-])c(Cl)[nH]c2c1 |  |  |  | IC50 (Genome polyprotein): > 100 µM (active)
CC(=O)c1c(C)cc(C)c(CSc2nc(C)cc(=O)[nH]2)c1C |  | > 66 µM (inactive) | > 66 µM (inactive) | 
O=C(CNC(=O)C1CCCCC1)NC1=NCCS1 |  | > 66 µM (inactive) | > 66 µM (inactive) | EC50 [8]: > 195 µM (not active)
O=C(CSc1nnc(-c2cccnc2)o1)Nc1ccccc1F |  | > 66 µM (inactive) | > 66 µM (inactive) | 
COc1ccc(CONS(=O)(=O)c2ccc(NC(C)=O)cc2)cc1Cl | 3.55 µM (inconclusive) |  |  | 
COc1c2c(c3c(c1OC)c(=O)c1ccccc1n3C)OCO2 |  | > 66 µM (inactive) | 41.7 µM (inactive) | 
CCOC(=O)C1=C(O)C(=O)N(Cc2ccccc2)C1 | 31.6 µM (inconclusive) |  |  | 
O=C(N/N=C/c1cnc(N2CCCCC2)s1)c1ccc(C(F)(F)F)cc1 |  |  |  | EC50 [4]: 12 µM (active); EC50 [5]: > 120 µM (not active); AC50 (INS1): 4.54 µM (active); EC50 [6]: 9.6 µM (active)
C(=N\N(c1ccccc1)c1ccccc1)/c1ccc2c(c1)OCO2 | 10 µM (inconclusive) |  |  | AC50 (Cytochrome P450 3A4): 15.8 µM (inconclusive); AC50 (Cytochrome P450 2C19): 2.51 µM (inconclusive); AC50 (Cytochrome P450 2C9): 8.91 µM (inconclusive)
OCCN1CCN(CC/C=C2\c3ccccc3Sc3ccc(C(F)(F)F)cc32)CC1 [E-FLUPENTIXOL] | 6.31 µM (inconclusive) and 31.6 µM (inconclusive) |  |  | 

From ChEMBL document CHEMBL1201862, “PubChem BioAssay data set” (2004)
